ChEMBL document CHEMBL5442219

Tests used:
Settings in all cases: Compound concentration 10 µM
[1] = target: T1, Alpha-2A adrenergic receptor (Homo sapiens) (UniProt P08913)
T1 sequence (whole entry): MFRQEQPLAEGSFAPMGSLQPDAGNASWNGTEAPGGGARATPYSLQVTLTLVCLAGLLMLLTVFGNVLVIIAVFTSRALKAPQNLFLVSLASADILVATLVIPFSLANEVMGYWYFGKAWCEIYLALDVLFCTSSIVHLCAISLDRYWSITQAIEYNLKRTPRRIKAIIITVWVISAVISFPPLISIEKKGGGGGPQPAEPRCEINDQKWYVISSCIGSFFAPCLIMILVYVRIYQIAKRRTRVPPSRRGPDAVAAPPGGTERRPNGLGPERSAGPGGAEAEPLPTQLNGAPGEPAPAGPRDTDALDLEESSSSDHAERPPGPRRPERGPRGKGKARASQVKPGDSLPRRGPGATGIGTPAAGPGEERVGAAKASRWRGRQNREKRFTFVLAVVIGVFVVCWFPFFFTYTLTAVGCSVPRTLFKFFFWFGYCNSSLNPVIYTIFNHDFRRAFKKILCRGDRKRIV

[2] = target: T2, Alpha-2C adrenergic receptor (Homo sapiens) (UniProt P18825)
T2 sequence (whole entry): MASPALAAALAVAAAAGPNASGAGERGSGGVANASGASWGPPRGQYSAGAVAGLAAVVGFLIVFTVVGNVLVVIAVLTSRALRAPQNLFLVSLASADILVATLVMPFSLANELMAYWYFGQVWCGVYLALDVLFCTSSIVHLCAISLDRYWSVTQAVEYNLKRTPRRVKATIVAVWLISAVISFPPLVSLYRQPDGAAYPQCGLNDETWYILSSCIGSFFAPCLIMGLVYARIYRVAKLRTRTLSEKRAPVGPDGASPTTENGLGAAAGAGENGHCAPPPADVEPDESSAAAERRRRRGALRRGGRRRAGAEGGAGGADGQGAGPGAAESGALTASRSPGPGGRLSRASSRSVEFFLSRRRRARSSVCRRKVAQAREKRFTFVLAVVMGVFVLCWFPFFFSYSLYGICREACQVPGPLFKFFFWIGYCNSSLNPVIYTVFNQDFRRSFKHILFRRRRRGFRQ

[3] = target: Beta-1 adrenergic receptor (Homo sapiens) (UniProt P08588)
[4] = target: T3, D(4) dopamine receptor (Homo sapiens) (UniProt P21917)
T3 sequence (whole entry): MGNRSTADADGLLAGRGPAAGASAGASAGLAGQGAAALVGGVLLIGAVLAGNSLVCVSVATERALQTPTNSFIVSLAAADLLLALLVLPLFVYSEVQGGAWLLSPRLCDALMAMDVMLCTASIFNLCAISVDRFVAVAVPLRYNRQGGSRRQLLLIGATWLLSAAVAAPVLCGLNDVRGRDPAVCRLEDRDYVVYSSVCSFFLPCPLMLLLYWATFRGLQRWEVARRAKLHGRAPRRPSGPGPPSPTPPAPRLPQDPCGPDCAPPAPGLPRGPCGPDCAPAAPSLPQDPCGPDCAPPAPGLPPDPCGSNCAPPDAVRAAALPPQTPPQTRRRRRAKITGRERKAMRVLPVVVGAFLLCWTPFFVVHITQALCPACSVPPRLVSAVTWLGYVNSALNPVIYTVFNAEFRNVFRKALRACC

[5] = target: Histamine H1 receptor (Homo sapiens) (UniProt P35367)
[6] = target: Histamine H4 receptor (Homo sapiens) (UniProt Q9H3N8)
[7] = target: T4, 5-hydroxytryptamine receptor 1A (Homo sapiens) (UniProt P08908)
T4 sequence (whole entry): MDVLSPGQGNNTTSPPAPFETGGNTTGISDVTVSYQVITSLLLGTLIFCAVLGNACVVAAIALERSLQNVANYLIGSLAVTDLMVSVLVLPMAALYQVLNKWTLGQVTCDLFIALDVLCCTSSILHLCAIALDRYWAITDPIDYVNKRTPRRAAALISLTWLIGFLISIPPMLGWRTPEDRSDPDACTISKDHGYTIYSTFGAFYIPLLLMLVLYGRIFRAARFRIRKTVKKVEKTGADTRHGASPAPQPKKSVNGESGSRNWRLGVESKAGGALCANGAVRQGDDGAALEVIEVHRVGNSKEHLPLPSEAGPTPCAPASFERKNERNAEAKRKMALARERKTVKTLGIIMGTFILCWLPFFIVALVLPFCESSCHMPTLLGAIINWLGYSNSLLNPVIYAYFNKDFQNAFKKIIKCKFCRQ

[8] = target: 5-hydroxytryptamine receptor 1B (Homo sapiens) (UniProt P28222)
[9] = target: 5-hydroxytryptamine receptor 2B (Homo sapiens) (UniProt P41595)
[10] = target: 5-hydroxytryptamine receptor 5A (Homo sapiens) (UniProt P47898)
[11] = target: 5-hydroxytryptamine receptor 7 (Homo sapiens) (UniProt P34969)
[12] = target: Beta-3 adrenergic receptor (Homo sapiens) (UniProt P13945)
[13] = target: T5, Muscarinic acetylcholine receptor M4 (Homo sapiens) (UniProt P08173)
T5 sequence (whole entry): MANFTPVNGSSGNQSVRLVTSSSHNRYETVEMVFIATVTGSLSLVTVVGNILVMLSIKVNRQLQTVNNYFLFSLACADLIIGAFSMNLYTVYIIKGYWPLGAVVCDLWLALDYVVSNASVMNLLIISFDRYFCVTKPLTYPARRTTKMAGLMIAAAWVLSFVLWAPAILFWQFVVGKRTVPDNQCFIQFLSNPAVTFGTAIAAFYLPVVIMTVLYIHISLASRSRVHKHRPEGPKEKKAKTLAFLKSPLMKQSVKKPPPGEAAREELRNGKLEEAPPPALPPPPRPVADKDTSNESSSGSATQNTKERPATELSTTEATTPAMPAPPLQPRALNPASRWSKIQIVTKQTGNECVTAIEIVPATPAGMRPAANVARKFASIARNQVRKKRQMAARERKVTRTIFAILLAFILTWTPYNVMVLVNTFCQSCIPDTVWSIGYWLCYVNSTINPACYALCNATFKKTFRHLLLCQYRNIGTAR

[14] = target: 5-hydroxytryptamine receptor 1D (Homo sapiens) (UniProt P28221)
[15] = target: D(1B) dopamine receptor (Homo sapiens) (UniProt P21918)
Sequence of D(1B) dopamine receptor (Homo sapiens) (P21918 whole entry): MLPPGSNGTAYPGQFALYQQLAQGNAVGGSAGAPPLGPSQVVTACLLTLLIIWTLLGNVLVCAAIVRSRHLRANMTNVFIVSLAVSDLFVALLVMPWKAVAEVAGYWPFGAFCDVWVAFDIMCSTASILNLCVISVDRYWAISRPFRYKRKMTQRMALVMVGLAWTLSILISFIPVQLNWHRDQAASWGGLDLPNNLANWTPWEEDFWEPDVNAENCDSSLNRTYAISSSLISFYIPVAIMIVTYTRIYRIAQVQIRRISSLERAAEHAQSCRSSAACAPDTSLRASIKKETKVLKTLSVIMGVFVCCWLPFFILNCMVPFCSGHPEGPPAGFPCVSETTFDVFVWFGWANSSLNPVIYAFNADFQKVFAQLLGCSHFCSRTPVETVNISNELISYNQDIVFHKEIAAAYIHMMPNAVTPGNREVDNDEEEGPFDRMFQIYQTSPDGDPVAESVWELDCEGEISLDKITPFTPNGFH

Sequence of 5-hydroxytryptamine receptor 5A (Homo sapiens) (P47898 whole entry): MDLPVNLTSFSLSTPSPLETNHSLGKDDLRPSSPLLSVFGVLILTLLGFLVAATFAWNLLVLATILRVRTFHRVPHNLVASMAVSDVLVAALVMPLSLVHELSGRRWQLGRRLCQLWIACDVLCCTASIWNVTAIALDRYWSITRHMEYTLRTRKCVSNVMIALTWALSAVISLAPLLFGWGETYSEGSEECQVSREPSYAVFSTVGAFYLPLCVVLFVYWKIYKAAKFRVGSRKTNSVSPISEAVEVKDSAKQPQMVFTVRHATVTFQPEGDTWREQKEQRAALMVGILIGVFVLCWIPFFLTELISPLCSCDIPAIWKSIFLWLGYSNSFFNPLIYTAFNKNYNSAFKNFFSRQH
Sequence of 5-hydroxytryptamine receptor 2B (Homo sapiens) (P41595 whole entry): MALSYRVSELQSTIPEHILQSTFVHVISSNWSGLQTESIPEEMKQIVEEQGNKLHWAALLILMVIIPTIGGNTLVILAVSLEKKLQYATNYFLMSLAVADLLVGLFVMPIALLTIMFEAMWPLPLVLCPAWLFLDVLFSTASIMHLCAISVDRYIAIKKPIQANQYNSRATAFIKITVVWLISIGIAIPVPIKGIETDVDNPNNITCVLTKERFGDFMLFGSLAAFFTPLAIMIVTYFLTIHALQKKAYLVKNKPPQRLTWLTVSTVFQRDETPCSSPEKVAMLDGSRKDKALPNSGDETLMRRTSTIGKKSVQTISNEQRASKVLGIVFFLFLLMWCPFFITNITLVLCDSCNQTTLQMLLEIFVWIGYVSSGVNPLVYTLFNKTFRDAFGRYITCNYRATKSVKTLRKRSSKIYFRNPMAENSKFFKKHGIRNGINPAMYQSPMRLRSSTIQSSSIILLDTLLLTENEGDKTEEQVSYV
Sequence of Beta-1 adrenergic receptor (Homo sapiens) (P08588 whole entry, looked up): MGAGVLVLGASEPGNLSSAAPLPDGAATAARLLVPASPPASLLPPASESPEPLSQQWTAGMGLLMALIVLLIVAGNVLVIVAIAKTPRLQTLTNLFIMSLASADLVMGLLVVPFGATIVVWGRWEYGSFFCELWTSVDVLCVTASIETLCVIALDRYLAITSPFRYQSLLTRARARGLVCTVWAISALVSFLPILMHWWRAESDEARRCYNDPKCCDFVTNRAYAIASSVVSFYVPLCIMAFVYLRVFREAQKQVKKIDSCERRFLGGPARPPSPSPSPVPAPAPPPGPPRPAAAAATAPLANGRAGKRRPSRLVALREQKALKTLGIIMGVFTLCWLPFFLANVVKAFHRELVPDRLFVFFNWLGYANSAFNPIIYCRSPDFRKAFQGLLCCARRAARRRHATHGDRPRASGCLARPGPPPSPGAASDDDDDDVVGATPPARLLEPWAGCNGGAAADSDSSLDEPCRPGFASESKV
Sequence of Beta-3 adrenergic receptor (Homo sapiens) (P13945 whole entry, looked up): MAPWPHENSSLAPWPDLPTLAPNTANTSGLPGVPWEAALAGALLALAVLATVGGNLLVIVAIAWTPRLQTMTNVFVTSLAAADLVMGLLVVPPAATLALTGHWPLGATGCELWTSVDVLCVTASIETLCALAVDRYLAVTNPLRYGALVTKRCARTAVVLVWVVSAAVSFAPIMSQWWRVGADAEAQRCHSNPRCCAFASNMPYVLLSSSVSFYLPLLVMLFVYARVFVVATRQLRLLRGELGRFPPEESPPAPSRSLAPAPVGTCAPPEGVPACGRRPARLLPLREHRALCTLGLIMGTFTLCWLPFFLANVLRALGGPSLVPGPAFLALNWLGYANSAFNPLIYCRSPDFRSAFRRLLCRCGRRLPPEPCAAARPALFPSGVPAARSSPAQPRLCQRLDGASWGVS
Sequence of Histamine H1 receptor (Homo sapiens) (P35367 whole entry): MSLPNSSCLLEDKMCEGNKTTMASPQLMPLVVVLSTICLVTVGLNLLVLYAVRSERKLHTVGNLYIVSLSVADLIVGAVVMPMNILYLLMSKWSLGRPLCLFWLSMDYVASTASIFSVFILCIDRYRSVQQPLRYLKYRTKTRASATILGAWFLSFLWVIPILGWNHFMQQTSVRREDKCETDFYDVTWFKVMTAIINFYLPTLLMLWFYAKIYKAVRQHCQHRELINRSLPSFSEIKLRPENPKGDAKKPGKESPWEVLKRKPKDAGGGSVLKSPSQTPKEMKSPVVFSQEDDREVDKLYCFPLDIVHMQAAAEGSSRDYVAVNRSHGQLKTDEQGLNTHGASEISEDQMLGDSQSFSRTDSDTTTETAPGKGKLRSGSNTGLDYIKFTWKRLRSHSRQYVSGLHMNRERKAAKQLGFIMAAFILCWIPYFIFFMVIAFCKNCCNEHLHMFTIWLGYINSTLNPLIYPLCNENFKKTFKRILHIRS
Sequence of 5-hydroxytryptamine receptor 1B (Homo sapiens) (P28222 whole entry): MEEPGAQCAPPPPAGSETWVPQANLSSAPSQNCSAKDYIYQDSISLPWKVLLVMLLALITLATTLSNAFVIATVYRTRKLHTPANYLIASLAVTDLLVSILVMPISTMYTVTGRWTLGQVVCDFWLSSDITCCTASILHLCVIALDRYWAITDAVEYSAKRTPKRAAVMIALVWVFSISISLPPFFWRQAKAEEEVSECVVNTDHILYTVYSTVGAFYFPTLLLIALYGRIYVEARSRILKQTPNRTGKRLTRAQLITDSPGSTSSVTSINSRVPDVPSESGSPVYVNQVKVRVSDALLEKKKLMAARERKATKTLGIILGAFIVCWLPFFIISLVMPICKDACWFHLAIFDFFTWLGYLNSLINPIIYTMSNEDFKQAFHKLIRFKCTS
Sequence of Histamine H4 receptor (Homo sapiens) (Q9H3N8 whole entry): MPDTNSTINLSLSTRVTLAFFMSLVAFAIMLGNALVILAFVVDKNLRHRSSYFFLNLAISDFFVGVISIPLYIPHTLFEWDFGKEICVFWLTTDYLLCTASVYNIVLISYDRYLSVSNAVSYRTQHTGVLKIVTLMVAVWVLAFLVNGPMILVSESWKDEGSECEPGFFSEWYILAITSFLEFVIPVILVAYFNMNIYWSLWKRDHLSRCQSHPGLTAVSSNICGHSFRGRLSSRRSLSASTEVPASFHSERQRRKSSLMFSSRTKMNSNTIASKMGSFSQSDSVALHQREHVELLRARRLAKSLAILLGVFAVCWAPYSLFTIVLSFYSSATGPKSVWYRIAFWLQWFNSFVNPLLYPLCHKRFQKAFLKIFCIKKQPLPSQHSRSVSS
Sequence of 5-hydroxytryptamine receptor 1D (Homo sapiens) (P28221 whole entry): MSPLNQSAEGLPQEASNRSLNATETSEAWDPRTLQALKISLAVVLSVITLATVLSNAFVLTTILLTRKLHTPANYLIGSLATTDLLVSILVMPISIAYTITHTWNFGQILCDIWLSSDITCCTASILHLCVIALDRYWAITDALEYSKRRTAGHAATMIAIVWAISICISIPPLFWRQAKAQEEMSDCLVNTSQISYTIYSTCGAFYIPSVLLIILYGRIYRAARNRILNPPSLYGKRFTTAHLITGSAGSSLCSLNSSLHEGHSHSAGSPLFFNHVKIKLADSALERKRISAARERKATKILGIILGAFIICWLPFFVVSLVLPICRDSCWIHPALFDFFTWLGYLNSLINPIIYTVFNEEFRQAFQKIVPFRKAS
Sequence of 5-hydroxytryptamine receptor 7 (Homo sapiens) (P34969 whole entry): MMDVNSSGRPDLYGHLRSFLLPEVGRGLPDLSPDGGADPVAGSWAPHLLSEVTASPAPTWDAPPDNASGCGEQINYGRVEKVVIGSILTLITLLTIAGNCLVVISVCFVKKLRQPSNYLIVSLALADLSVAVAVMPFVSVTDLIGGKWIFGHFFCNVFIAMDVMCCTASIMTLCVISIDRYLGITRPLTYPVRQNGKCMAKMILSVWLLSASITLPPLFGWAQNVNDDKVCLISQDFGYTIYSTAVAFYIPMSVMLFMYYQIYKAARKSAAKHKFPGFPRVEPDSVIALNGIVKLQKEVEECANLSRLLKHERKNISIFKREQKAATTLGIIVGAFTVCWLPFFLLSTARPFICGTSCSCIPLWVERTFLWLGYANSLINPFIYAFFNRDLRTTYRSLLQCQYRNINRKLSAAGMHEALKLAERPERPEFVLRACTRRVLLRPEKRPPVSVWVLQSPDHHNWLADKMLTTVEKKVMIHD

SMILES | inhibition [1] | inhibition [2] | inhibition [3] | inhibition [4] | inhibition [5] | inhibition [6] | inhibition [7] | inhibition [8] | inhibition [9] | inhibition [10] | inhibition [11] | inhibition [12] | inhibition [13] | inhibition [14] | inhibition [15]
CN(C(=O)Cc1ccc(Cl)c(Cl)c1)C(CN1CCCC1)c1cccc(OCC(=O)O)c1 (stereo unspecified) | 12.2% | 3.8% | 20.5% | -5.18% | 47.4% | 13.7% | 24.9% | 11.1% | 14.7% | 1.89% | -9.81% | -9.83% | – | – | –
CCc1cc2c(c(CC)n1)CCC(=O)N2Cc1ccc(-c2ccccc2-c2nnn[nH]2)cc1 | -6.38% | 5.68% | – | 70% | 8.58% | – | -4.87% | 11.5% | 10.5% | -4.8% | – | 9.68% | -4.36% | – | –
Cc1c(OCc2cccc(-c3ccc(C(=O)O)cc3)c2)cc2c(c1C)C(=O)C(C1CCCC1)C2 (stereo unspecified) | – | – | -9.82% | 44% | -3.97% | 14.3% | -4.54% | 4.33% | – | – | – | 76.5% | – | 0.61% | –
CCCCC#Cc1nc(NC)c2ncn([C@@H]3O[C@H](CO)[C@@H](O)[C@H]3O)c2n1 | – | -4.88% | – | -8.18% | 20.6% | -7.18% | 3.96% | -7.26% | -4.41% | -6.71% | – | -8.99% | 0.76% | 8.46% | –
COc1ccccc1CN[C@H]1C2CCN(CC2)[C@H]1C(c1ccccc1)c1ccccc1 | 11.1% | 1.59% | 17% | 15.3% | 40.4% | 27.6% | -1.15% | 8.03% | 0.68% | 19.7% | -6.37% | -1.7% | -4.3% | – | –
Nc1nc2c(c(N3CCNCC3)n1)CCC1=C2[C@@H]2CCCC[C@@H]2O1 | 4.22% | 30.6% | – | 8.96% | 55% | 89.8% | 49.9% | – | 81.8% | -4.34% | 17.8% | 14.4% | -0.51% | 10% | -1.02%
c1ccc(N2CCN(Cc3nc4ccccc4[nH]3)CC2)nc1 | – | 4.37% | 13.5% | 87.2% | 15.6% | – | 35.1% | 6.19% | 16.4% | 11.8% | 33.7% | 17.4% | -4.29% | – | -1.78%
CC(C)C[C@H](NC(=O)N1CCCCCC1)C(=O)N[C@H](Cc1cn(C)c2ccccc12)C(=O)N[C@H](Cc1ccccn1)C(=O)O | -6.57% | 0.48% | -0.82% | – | 5.31% | – | – | -2.58% | 16% | – | – | -0.31% | 0.19% | – | -0.58%
CC(C)NCC(O)c1ccc(N)c(C#N)c1 (stereo unspecified) | -5.25% | -3.24% | – | -4.2% | 34.1% | 0.52% | 37.6% | – | – | – | 20.1% | 59.9% | – | – | –
CCc1cc(C(C)=O)c(O)cc1OCCCCCC(C)(C)c1nn[nH]n1 | 14% | 12% | 18.3% | 22.6% | 17.1% | 34.3% | -8.57% | 14.7% | 64.2% | 8.4% | – | 0.68% | -4.28% | – | –
COc1ccc(Br)cc1S(=O)(=O)NC(=O)/C=C/c1ccccc1Cc1ccc2ccccc2c1 | – | 18.6% | – | 33.8% | 9.07% | -5.64% | 9.76% | 3.55% | -4.73% | – | – | 33.2% | -8.83% | 12% | -9.64%
C[C@H](Cc1cc2c(c(C(N)=O)c1)N(CCCO)CC2)NCCOc1ccccc1OCC(F)(F)F | 84.6% | 82.5% | 31.1% | 63.3% | 62.9% | -6.83% | 100% | 92.3% | 71.7% | 25.3% | 83.6% | 11% | -8.65% | 90.2% | –
Cc1cc(NC(=O)Nc2ccc(N(C)C)cc2)c2cc(F)cc(F)c2n1 | – | 9.7% | – | 25.9% | 6.41% | 5.25% | – | – | 73.3% | – | – | 18.1% | 2.31% | -2.42% | –
CCCSc1nc(N[C@@H]2C[C@H]2c2ccc(F)c(F)c2)c2nnn([C@@H]3C[C@H](OCCO)[C@@H](O)[C@H]3O)c2n1 | – | 15.4% | 4.3% | 7.98% | 16.1% | -2.55% | 11.6% | 19.3% | 33.3% | 33.2% | 16.8% | 49.7% | -3.79% | 48.6% | 2.95%
C/C(=N\NC(=O)[C@@H]1C(=O)NC[C@H]1c1ccccc1)c1cccc(Br)c1 | – | -7.78% | -3.09% | 2.24% | 58.5% | – | 26.4% | 3.07% | 14.3% | 18.8% | 8.23% | 3.81% | – | – | -9.13%
